Experimental data as given in ChEMBL document CHEMBL1135808, “A new type of mixed anhydride and its applications to the synthesis of 7-substituted 8-chloro-5,5-dioxoimidazo[1,2-b][1,4,2]benzodithiazines with in vitro antitumor activity” (2002).

Experiments:
NCI-H23 [1] = assay: In vitro total growth inhibition against non-small-cell lung cancer NCI-H23 cell lines was reported.; assay type: functional; details: Homo sapiens, read-out: Log TGI (converted)
K562 = assay: In vitro total growth inhibition against leukemia K-562 cell lines was reported.; assay type: functional; details: Homo sapiens, read-out: Log TGI (converted)
HT-29 [2] = assay: In vitro total growth inhibition against colon cancer HT-29 cell lines was reported.; assay type: functional; details: Homo sapiens, read-out: Log TGI (converted)
NCI-H46 = assay: In vitro total growth inhibition against non-small-cell lung cancer […] cell lines was reported.; assay type: functional; details: Homo sapiens, read-out: Log TGI (converted)
SK-MEL-28 = assay: In vitro total growth inhibition against melanoma SK-MEL-28 cell lines was reported.; assay type: functional; details: Homo sapiens, read-out: Log TGI (converted)
LOX IMVI [3] = assay: In vitro growth inhibition against melanoma LOX IMVI cell line was reported.; assay type: functional; details: Homo sapiens
NCI-H226 [4] = assay: In vitro total growth inhibition against non-small-cell lung cancer NCI-H226 cell lines was reported.; assay type: functional; details: Homo sapiens, read-out: Log TGI (converted)
HOP-62 [5] = assay: In vitro growth inhibition against non-small-cell lung cancer HOP-62 cell line was reported.; assay type: functional; details: Homo sapiens
NCI-H522 [6] = assay: In vitro total growth inhibition against non-small-cell lung cancer NCI-522 cell lines was reported.; assay type: functional; details: Homo sapiens, read-out: Log TGI (converted)
U-251 [7] = assay: Log of molar concentration leading to 50% cell death against CNS cancer U251 cell line was reported; assay type: functional; details: Homo sapiens, read-out: Log LC50 (the source's name) (converted)
OVCAR-4 = assay: In vitro total growth inhibition against ovarian cancer OVCAR-4 cell lines was reported.; assay type: functional; details: Homo sapiens, read-out: Log TGI (converted)
HL-60 [8] = assay: Log of molar concentration leading to 50% cell death against leukemia HL-60(TB) cell line was reported; assay type: functional; details: Homo sapiens, read-out: Log LC50 (the source's name) (converted)
RPMI-8226 [9] = assay: In vitro growth inhibition against leukemia […] cell line was reported.; assay type: functional; details: Homo sapiens
SNB-19 = assay: In vitro growth inhibition against CNS cancer SNB-19 cell line was reported.; assay type: functional; details: Homo sapiens
ACHN [10] = assay: In vitro growth inhibition against renal cancer ACHN cell line was reported.; assay type: functional; details: Homo sapiens
U-251 [11] = assay: In vitro growth inhibition against CNS cancer U251 cell line was reported.; assay type: functional; details: Homo sapiens
MDA-MB-435 = assay: In vitro total growth inhibition against breast cancer MDA-MB-435 cell lines was reported.; details: Homo sapiens, read-out: Log TGI (converted)
CAKI-1 = assay: In vitro growth inhibition against renal cancer CAKI-1 cell line was reported.; assay type: functional; details: Homo sapiens
NCI-H522 [12] = assay: Log of molar concentration leading to 50% cell death against non-small-cell lung cancer NCI-522 cell line was reported; assay type: functional; details: Homo sapiens, read-out: Log LC50 (the source's name) (converted)
SR [13] = assay: In vitro growth inhibition against leukemia SR cell line was reported.; assay type: functional; details: Homo sapiens
SF-295 = assay: In vitro growth inhibition against CNS cancer SF-295 cell line was reported.; assay type: functional; details: Homo sapiens
SK-MEL-2 = assay: In vitro total growth inhibition against melanoma SK-MEL-2 cell lines was reported.; assay type: functional; details: Homo sapiens, read-out: Log TGI (converted)
Hs-578T = assay: In vitro growth inhibition against breast cancer HS 578T cell line was reported.; assay type: functional; details: Homo sapiens
MDA-MB-231 = assay: In vitro growth inhibition against breast cancer MDA-MB-231/ATCC cell line was reported.; assay type: functional; details: Homo sapiens
RPMI-8226 [14] = assay: Log of molar concentration leading to 50% cell death against leukemia […] cell line was reported; assay type: functional; details: Homo sapiens, read-out: Log LC50 (the source's name) (converted)
UO-31 = assay: In vitro total growth inhibition against renal cancer UO-31 cell lines was reported.; assay type: functional; details: Homo sapiens, read-out: Log TGI (converted)
HOP-92 = assay: In vitro growth inhibition against non-small-cell lung cancer HOP-92 cell line was reported.; assay type: functional; details: Homo sapiens
DU-145 [15] = assay: In vitro total growth inhibition against prostate cancer […] cell lines was reported.; assay type: functional; details: Homo sapiens, read-out: Log TGI (converted)
NCI-H23 [16] = assay: In vitro growth inhibition against non-small-cell lung cancer NCI-H23 cell line was reported.; assay type: functional; details: Homo sapiens
NCI-H226 [17] = assay: In vitro growth inhibition against non-small-cell lung cancer NCI-H226 cell line was reported.; assay type: functional; details: Homo sapiens
M14 [18] = assay: In vitro total growth inhibition against melanoma M14 cell lines was reported.; assay type: functional; details: Homo sapiens, read-out: Log TGI (converted)
MCF7 [19] = assay: Log of molar concentration leading to 50% cell death against breast cancer MCF 7 cell line was reported; assay type: functional; details: Homo sapiens, read-out: Log LC50 (the source's name) (converted)
UACC-257 = assay: In vitro total growth inhibition against melanoma UACC-257 cell lines was reported.; assay type: functional; details: Homo sapiens, read-out: Log TGI (converted)
MDA-N = assay: In vitro total growth inhibition against breast cancer MDA-N cell lines was reported.; assay type: functional; details: Homo sapiens, read-out: Log TGI (converted)
M14 [20] = assay: Log of molar concentration leading to 50% cell death against melanoma M14 cell line was reported; assay type: functional; details: Homo sapiens, read-out: Log LC50 (the source's name) (converted)
HL-60 [21] = assay: In vitro growth inhibition against leukemia HL-60(TB) cell line was reported.; assay type: functional; details: Homo sapiens
UACC-62 = assay: In vitro total growth inhibition against melanoma UACC-62 cell lines was reported.; assay type: functional; details: Homo sapiens, read-out: Log TGI (converted)
HCC 2998 [22] = assay: In vitro growth inhibition against colon cancer HCC2998 cell line was reported.; assay type: functional; details: Homo sapiens
ACHN [23] = assay: In vitro total growth inhibition against renal cancer ACHN cell lines was reported.; assay type: functional; details: Homo sapiens, read-out: Log TGI (converted)
HCT-15 = assay: In vitro growth inhibition against colon cancer […] cell line was reported.; assay type: functional; details: Homo sapiens
RXF 393 [24] = assay: Log of molar concentration leading to 50% cell death against renal cancer RXF 393 cell line was reported; assay type: functional; details: Homo sapiens, read-out: Log LC50 (the source's name) (converted)
HCC 2998 [25] = assay: Log of molar concentration leading to 50% cell death against colon cancer HCC2998 cell line was reported; assay type: functional; details: Homo sapiens, read-out: Log LC50 (the source's name) (converted)
Tumor Cell line [26] = assay: Log of molar concentration leading to 50% cell death was reported; assay type: functional; details: Homo sapiens, read-out: Log LC50 (the source's name) (converted)
PC-3 = assay: Log of molar concentration leading to 50% cell death against prostate cancer PC-3 cell line was reported; assay type: functional; details: Homo sapiens, read-out: Log LC50 (the source's name) (converted)
SF-539 = assay: In vitro growth inhibition against CNS cancer SF-539 cell line was reported.; assay type: functional; details: Homo sapiens
IGROV-1 = assay: Log of molar concentration leading to 50% cell death against ovarian cancer IGROV1 cell line was reported; assay type: functional; details: Homo sapiens, read-out: Log LC50 (the source's name) (converted)
HT-29 [27] = assay: In vitro growth inhibition against colon cancer HT-29 cell line was reported.; assay type: functional; details: Homo sapiens
Malme-3M = assay: In vitro growth inhibition against melanoma MALME 3M cell line was reported.; assay type: functional; details: Homo sapiens
DU-145 [28] = assay: Log of molar concentration leading to 50% cell death against prostate cancer […] cell line was reported; assay type: functional; details: Homo sapiens, read-out: Log LC50 (the source's name) (converted)
SR [29] = assay: In vitro total growth inhibition against leukemia SR cell lines was reported.; assay type: functional; details: Homo sapiens, read-out: Log TGI (converted)
RXF 393 [30] = assay: In vitro growth inhibition against renal cancer RXF 393 cell line was reported.; assay type: functional; details: Homo sapiens
786-0 [31] = assay: Log of molar concentration leading to 50% cell death against renal cancer […] cell line was reported; assay type: functional; details: Homo sapiens, read-out: Log LC50 (the source's name) (converted)
786-0 [32] = assay: In vitro total growth inhibition against renal cancer […] cell lines was reported.; assay type: functional; details: Homo sapiens, read-out: Log TGI (converted)
CCRF-CEM = assay: In vitro growth inhibition against leukemia CCRF-CEM cell line was reported.; assay type: functional; details: Homo sapiens
NCI-H322M = assay: Log of molar concentration leading to 50% cell death against non-small-cell lung cancer NCI-H322M cell line was reported; assay type: functional; details: Homo sapiens, read-out: Log LC50 (the source's name) (converted)
MCF7 [33] = assay: In vitro total growth inhibition against breast cancer MCF 7 cell lines was reported.; assay type: functional; details: Homo sapiens, read-out: Log TGI (converted)
HOP-62 [34] = assay: In vitro total growth inhibition against non-small-cell lung cancer HOP-62 cell lines was reported.; assay type: functional; details: Homo sapiens, read-out: Log TGI (converted)
LOX IMVI [35] = assay: In vitro total growth inhibition against melanoma LOX IMVI cell lines was reported.; assay type: functional; details: Homo sapiens, read-out: Log TGI (converted)
OVCAR-8 = assay: In vitro growth inhibition against ovarian cancer OVCAR-8 cell line was reported.; assay type: functional; details: Homo sapiens
A549 = assay: In vitro growth inhibition against non-small-cell lung cancer A 549/ATCC cell line was reported.; assay type: functional; details: Homo sapiens
Tumor Cell line [36] = assay: In vitro total growth inhibition for 50 cell lines was reported as log of molar concentration; assay type: functional, Homo sapiens

O=C(Nc1nccs1)c1cc2c(cc1Cl)Sc1nccn1S2(=O)=O
TGI (NCI-H23 [1]): 33.9 µM | TGI (K562): 46.8 µM | TGI (HT-29 [2]): 46.8 µM | TGI (NCI-H46): 29.5 µM | TGI (SK-MEL-28): 38 µM | GI50 (LOX IMVI [3]): 11 µM | TGI (NCI-H226 [4]): 35.5 µM | GI50 (HOP-62 [5]): 14.8 µM | TGI (NCI-H522 [6]): 2.82 µM | CC50 (U-251 [7]): 56.2 µM | TGI (OVCAR-4): 38.9 µM | CC50 (HL-60 [8]): 70.8 µM | GI50 (RPMI-8226 [9]): 9.33 µM | GI50 (SNB-19): 19.1 µM | GI50 (ACHN [10]): 17.8 µM | GI50 (U-251 [11]): 17.4 µM | TGI (MDA-MB-435): 31.6 µM | GI50 (CAKI-1): 8.51 µM | CC50 (NCI-H522 [12]): 6.61 µM | GI50 (SR [13]): 3.02 µM | GI50 (SF-295): 18.2 µM | TGI (SK-MEL-2): 33.1 µM | GI50 (Hs-578T): 28.2 µM | GI50 (MDA-MB-231): 19.5 µM | CC50 (RPMI-8226 [14]): 57.5 µM | TGI (UO-31): 14.8 µM | GI50 (HOP-92): 15.1 µM | TGI (DU-145 [15]): 30.2 µM | GI50 (NCI-H23 [16]): 17 µM | GI50 (NCI-H226 [17]): 19.5 µM | TGI (M14 [18]): 34.7 µM | CC50 (MCF7 [19]): 44.7 µM | TGI (UACC-257): 26.9 µM | TGI (MDA-N): 33.1 µM | CC50 (M14 [20]): 67.6 µM | GI50 (HL-60 [21]): 13.5 µM | TGI (UACC-62): 27.5 µM | GI50 (HCC 2998 [22]): 15.8 µM | TGI (ACHN [23]): 32.4 µM | GI50 (HCT-15): 12.3 µM | CC50 (RXF 393 [24]): 83.2 µM | CC50 (HCC 2998 [25]): 53.7 µM | CC50 (Tumor Cell line [26]): 97.7 µM | CC50 (PC-3): 66.1 µM | GI50 (SF-539): 19.5 µM | CC50 (IGROV-1): 75.9 µM | GI50 (HT-29 [27]): 20 µM | GI50 (Malme-3M): 20 µM | CC50 (DU-145 [28]): 27.5 µM | TGI (SR [29]): 12 µM | GI50 (RXF 393 [30]): 19.1 µM | CC50 (786-0 [31]): 53.7 µM | TGI (786-0 [32]): 29.5 µM | GI50 (CCRF-CEM): 5.01 µM | CC50 (NCI-H322M): 64.6 µM | TGI (MCF7 [33]): 20 µM | TGI (HOP-62 [34]): 30.2 µM | TGI (LOX IMVI [35]): 25.7 µM | GI50 (OVCAR-8): 17.4 µM | GI50 (A549): 24 µM | Log GTI (Tumor Cell line [36]): -4.04
